The results in this text go back to US11986532B2 (Arvinas Operations, Inc., priority 2021, dated 2024).

The target in this assay is T1, BCL6 (Homo sapiens, UniProt P41182).
T1 construct: endogenous in cells; host or cells: T47D breast cancer epithelial cells
The assay is described as follows: Immunofluorescence protocol for high content imaging of BCL6 (degradation) in T47D cells, 3 days compound treatment. In kind it is cell-based. Particulars: T47D cells, 3 days compound treatment; for DC50: read-out: Mean DC50 (nM)* category; for Dmax: read-out: Mean Dmax (%)** category. The method, boiled down:
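Cells are seeded to reach ~70-90% confluence at endpoint, then dosed next day with compound at a final top concentration of 0.1 or 1 μM (11 points, 3-fold). After 3 days, BCL6 is detected by immunofluorescence and quantified by high-content imaging.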

As usually defined, the DC50 is the midpoint of the concentration-degradation curve. A word on the Dmax: it is the largest share of the target that was removed.

SMILES strings stand for the structures.

Take `CNC(=O)COc1cc2cc(Nc3nc(N4CCC(F)(CN5CC6(CCN(c7cccc8c7CN(C7CCC(=O)NC7=O)C8=O)CC6)C5)CC4)ncc3Cl)ccc2n(C(C)C)c1=O` (stereo not drawn) [Compound 99]: the DC50 was < 10 nM and the Dmax was 50 to 70%.
`CNC(=O)COc1cc2cc(Nc3nc(N4CCC(CN5CCC6(CN(c7cc8c(cc7F)C(=O)N(C7CCC(=O)NC7=O)C8)C6)C(F)(F)C5)CC4)ncc3Cl)ccc2n(C(C)C)c1=O` (stereo not drawn) [Compound 100, 2-{[6-({5-chloro-2-[4-({2-[2-(2,6-dioxopiperidin-3-yl)-6-fluoro-1-oxo-2,3-dihydro-1H-isoindol-5-yl]-5,5-difluoro-2,7-diazaspiro[3.5]nonan-7-yl}methyl)piperidin-1-yl]pyrimidin-4-yl}amino)-2-oxo-1-(propan-2-yl)-1,2-dihydroquinolin-3-yl]oxy}-N-methylacetamide]: the 50% degradation concentration (DC50) was < 10 nM and the greatest degradation seen (Dmax) is 50 to 70%.
`CNC(=O)COc1cc2cc(Nc3nc(N4CCC(CN5CCC6(CN(c7cc8c(c(OC)c7)C(=O)N(C7CCC(=O)NC7=O)C8)C6)C(F)(F)C5)CC4)ncc3Cl)ccc2n(C(C)C)c1=O` (stereo not drawn) [Compound 101, 2-{[6-({5-chloro-2-[4-({2-[2-(2,6-dioxopiperidin-3-yl)-7-methoxy-1-oxo-2,3-dihydro-1H-isoindol-5-yl]-5,5-difluoro-2,7-diazaspiro[3.5]nonan-7-yl}methyl)piperidin-1-yl]pyrimidin-4-yl}amino)-2-oxo-1-(propan-2-yl)-1,2-dihydroquinolin-3-yl]oxy}-N-methylacetamide]: the DC50 was < 10 nM and the Dmax was 50 to 70%.
The corresponding values for `CNC(=O)COc1cc2cc(Nc3nc(N4CCC(CN5CCC6(CN(c7cccc8c7CN(C7CCC(=O)NC7=O)C8=O)C6)C(F)(F)C5)CC4)ncc3Cl)ccc2n(C(C)C)c1=O` (stereo not drawn) [Compound 102, 2-{[6-({5-chloro-2-[4-({2-[2-(2,6-dioxopiperidin-3-yl)-1-oxo-2,3-dihydro-1H-isoindol-4-yl]-5,5-difluoro-2,7-diazaspiro[3.5]nonan-7-yl}methyl)piperidin-1-yl]pyrimidin-4-yl}amino)-2-oxo-1-(propan-2-yl)-1,2-dihydroquinolin-3-yl]oxy}-N-methylacetamide] are < 10 nM and 50 to 70%.
In the case of `CNC(=O)COc1cc2cc(Nc3nc(N4CCC(O[C@H]5C[C@H](N6CCC(c7cc8c(c(OC)c7)C(=O)N(C7CCC(=O)NC7=O)C8)CC6)C5)CC4)ncc3Cl)ccc2n(C(C)C)c1=O` (stereo partly drawn) [Compound 103, 2-({6-[(5-chloro-2-{4-[(1r,3r)-3-{4-[2-(2,6-dioxopiperidin-3-yl)-7-methoxy-1-oxo-2,3-dihydro-1H-isoindol-5-yl]piperidin-1-yl}cyclobutoxy]piperidin-1-yl}pyrimidin-4-yl)amino]-2-oxo-1-(propan-2-yl)-1,2-dihydroquinolin-3-yl}oxy)-N-methylacetamide], the DC50 is < 10 nM and the Dmax was 50 to 70%.
As for `CNC(=O)COc1cc2cc(Nc3nc(N4CCN(C(C)(C)C5CCN(c6cccc7c6CN(C6CCC(=O)NC6=O)C7=O)CC5)CC4)ncc3Cl)ccc2n(C(C)C)c1=O` (stereo not drawn) [Compound 104, 2-{[6-({5-chloro-2-[4-(2-{1-[2-(2,6-dioxopiperidin-3-yl)-1-oxo-2,3-dihydro-1H-isoindol-4-yl]piperidin-4-yl}propan-2-yl)piperazin-1-yl]pyrimidin-4-yl}amino)-2-oxo-1-(propan-2-yl)-1,2-dihydroquinolin-3-yl]oxy}-N-methylacetamide], the 50% degradation concentration (DC50) is < 10 nM and the Dmax lay in the range of 50 to 70%.
The corresponding values for `CNC(=O)COc1cc2cc(Nc3nc(N4CCN(CC5CCN(c6cc(F)cc7c6CN(C6CCC(=O)NC6=O)C7=O)CC5)CC4)ncc3Cl)ccc2n(C(C)C)c1=O` (stereo not drawn) [Compound 105, 2-{[6-({5-chloro-2-[4-({1-[2-(2,6-dioxopiperidin-3-yl)-6-fluoro-1-oxo-2,3-dihydro-1H-isoindol-4-yl]piperidin-4-yl}methyl)piperazin-1-yl]pyrimidin-4-yl}amino)-2-oxo-1-(propan-2-yl)-1,2-dihydroquinolin-3-yl]oxy}-N-methylacetamide] are < 10 nM and 50 to 70%.
As to `CNC(=O)COc1cc2cc(Nc3nc(N4CCC(F)(CN5CC6(CCN(c7cc8c(cc7F)C(=O)N(C7CCC(=O)NC7=O)C8)CC6)C5)CC4)ncc3Cl)ccc2n(C(C)C)c1=O` (stereo not drawn) [Compound 106], the 50% degradation concentration (DC50) was < 10 nM and the greatest degradation seen (Dmax) lay in the range of 50 to 70%.
Take `CNC(=O)COc1cc2cc(Nc3nc(N4CCC(O[C@H]5CC[C@H](N(C)C6CN(c7ccc8c(c7)C(=O)N(C7CCC(=O)NC7=O)C8=O)C6)CC5)CC4)ncc3Cl)ccc2n(C(C)C)c1=O` (stereo partly drawn) [Compound 107, 2-[(6-{[5-chloro-2-(4-{[(1r,4r)-4-({1-[2-(2,6-dioxopiperidin-3-yl)-1,3-dioxo-2,3-dihydro-1H-isoindol-5-yl]azetidin-3-yl}(methyl)amino)cyclohexyl]oxy}piperidin-1-yl)pyrimidin-4-yl]amino}-2-oxo-1-(propan-2-yl)-1,2-dihydroquinolin-3-yl)oxy]-N-methylacetamide]: the DC50 was < 10 nM and the maximal degradation (Dmax) fell in the range of 50 to 70%.
In the case of `CNC(=O)COc1cc2cc(Nc3nc(N4CCC(O[C@H]5CC[C@H](N(C)C6CN(c7cccc8c7C(=O)N(C7CCC(=O)NC7=O)C8=O)C6)CC5)CC4)ncc3Cl)ccc2n(C(C)C)c1=O` (stereo partly drawn) [Compound 108, 2-[(6-{[5-chloro-2-(4-{[(1r,4r)-4-({1-[2-(2,6-dioxopiperidin-3-yl)-1,3-dioxo-2,3-dihydro-1H-isoindol-4-yl]azetidin-3-yl}(methyl)amino)cyclohexyl]oxy}piperidin-1-yl)pyrimidin-4-yl]amino}-2-oxo-1-(propan-2-yl)-1,2-dihydroquinolin-3-yl)oxy]-N-methylacetamide], the DC50 is < 10 nM and the Dmax lay within 50 to 70%.
On to `CNC(=O)COc1cc2cc(Nc3nc(N4CCC5(CCN(CC6(F)CCN(c7cc(F)cc8c7CN(C7CCC(=O)NC7=O)C8=O)CC6)CC5)CC4)ncc3Cl)ccc2n(C(C)C)c1=O` (stereo not drawn) [Compound 109, 2-{[6-({5-chloro-2-[9-({1-[2-(2,6-dioxopiperidin-3-yl)-6-fluoro-1-oxo-2,3-dihydro-1H-isoindol-4-yl]-4-fluoropiperidin-4-yl}methyl)-3,9-diazaspiro [5.5]undecan-3-yl]pyrimidin-4-yl}amino)-2-oxo-1-(propan-2-yl)-1,2-dihydroquinolin-3-yl]oxy}-N-methylacetamide], for which the DC50 is < 10 nM and the greatest degradation seen (Dmax) was in the range of 50 to 70%.
`CNC(=O)COc1cc2cc(Nc3nc(N4CCC(O[C@H]5CC[C@@H](N6CCC(c7ccc8c(c7)C(=O)N(C7CCC(=O)NC7=O)C8=O)CC6)CC5)CC4)ncc3Cl)ccc2n(C(C)C)c1=O` (stereo partly drawn) [Compound 110, 2-[(6-{[5-chloro-2-(4-{[(1s,4s)-4-{4-[2-(2,6-dioxopiperidin-3-yl)-1,3-dioxo-2,3-dihydro-1H-isoindol-5-yl]piperidin-1-yl}cyclohexyl]oxy}piperidin-1-yl)pyrimidin-4-yl]amino}-2-oxo-1-(propan-2-yl)-1,2-dihydroquinolin-3-yl)oxy]-N-methylacetamide]: the DC50 is ≥ 100 nM and the Dmax was ≥ 70%.
